Experimental data taken from patent US7064120B2, “Tricyclic pyridyl carboxamides and derivatives thereof tocolytic oxytocin receptor antagonists” (Wyeth, priority 2001, dated 2006).

Molecular target: T1, human vasopressin V2 receptor subtype (Homo sapiens, UniProt P30518)
T1 construct: host or cells: CHO cells, stably transfected (pZeoSV vector)
Assay: Vasopressin binding in CHO cell membranes expressing human vasopressin V2 subtype receptors ([3H]arginine vasopressin radioligand binding)
Conditions: 100 nM
Procedure: Vasopressin Binding in Chinese Hamster Ovary Cell Membranes Expressing Human Vasopressin V2 Subtype Receptors
Chinese Hamster Ovary (CHO) cells stably transfected with the human V2 subtype receptors were obtained from M. Thibonnier, Case Western Reserve University School of Medicine, Cleveland, Ohio.
The trypsin is removed by aspiration and the cells dislodged by tapping. Cell Culture medium (e.g. 30 mL for 1:30 split) is immediately added and mixed well to inactivate trypsin. 1 mL of detached cells is added to new culture flasks containing fresh Cell Culture medium (e.g. into 25 mL per T-150 flask), and mixed gently. The cells are incubated at 37° C. in 5% CO2. The medium is changed at 3 to 4 day interval (or as appropriate). […] All steps are done under sterile conditions.
The cells are washed twice gently with Hank's Balanced Salt solution (e.g. use 10 mL per T-150 flask). […] The contents are transferred to centrifuge tubes (50 mL) kept in ice bath. All subsequent steps are done at 4° C. The tubes are centrifuged at 300×g for 15 min (1380 rpm on SORVAL, Model RT6000D, using the rotor for 50 mL tubes). The supernatant is discarded and the cells suspended in homogenizing buffer(10 mM Tris-HCl containing 0.25 M sucrose and 1 mM EDTA, pH 7.4) ensuring that the volume of the buffer is about ten times the volume of the cell pellet. The cells are pooled into a centrifuge tube (50 mL) and homogenized with Polytron at setting 6 for 10 sec. The homogenate is transferred into a Potter-Elvjehm homogenizer and homogenized with 3 strokes. The homogenate is centrifuged at 1500×g for 60 min at 4° C. (3100 rpm using SORVAL, model RT6000D, using the rotor for 50 mL tubes). The pellet is discarded. The supernatant is centrifuged at 100,000×g for 60 min. at 4° C. (Beckman L8-80M ultracentrifuge; spin at 37,500 rpm with rotor type 70 Ti for 50 mL tubes; 38,000 rpm with type 80Ti for 15 mL tubes; or 35,800 rpm with rotor type 45Ti). The supernantant is discarded and the pellet suspended in 3 to 4 mL of Tris buffer (50 mM TRIS-HCl, pH 7.4). The protein content is estimated by the Bradford or Lowry method. The volume of the membrane suspension is adjusted with the membrane buffer (50 mM Tris-HCl containing 0.1% BSA and 0.1 mM PMSF) to give 3.0 mg/mL (or as appropriate) of protein. The membranes are aliquoted and stored at −70° C.
In wells of a 96-well format microtiter plate, is added 90, 110 or 130 μL (to make up a final volume of 200 μL) of assay buffer containing 50 mM of Tris-HCl (pH 7.4), […], 1 mg % aprotinin, 1 mg % leupeptin, 2 mg % 1,10-phenanthroline, 10 mg % trypsin inhibitor, and 0.1 mM PMSF. The inhibitors are added on the day of the experiment. The components are mixed at room temperature, and then kept in ice bath following adjustment of the pH to 7.4. […] For vasopressin and other peptide ligands 20 μL of 50% DMSO is added and the assay buffer volume is adjusted accordingly. To each well is added 50 μL of frozen membrane suspension thawed immediately prior to use and diluted in assay buffer to the required concentration (equivalent to 25 to 50 μg of protein/well as needed). 20 μL of 8 nM [^3H]arginine vasopressin ligand in the assay buffer, prepared just before use is added and incubated at room temperature for 60 min. shaking the plate on a mechanical shaker for the first 15 min. The incubation is stopped by rapid filtration of the plate contents followed by wash with ice-cold buffer (50 mM Tris-HCl, pH 7.4) using a cell harvester (Tomtek and Printed filtermat-B filter paper). The filter paper is thoroughly dried (7–12 min. in a microwave oven) and impregnated with MeltiLex B/H melt-on scintillation wax sheets and the radioactivity counted in a betaplate scintillation counter.
Binding data is either reported as percent inhibition at a certain concentration or if an IC50 was calculated, as a nanomolar concentration.

T1 sequence (P30518 whole entry): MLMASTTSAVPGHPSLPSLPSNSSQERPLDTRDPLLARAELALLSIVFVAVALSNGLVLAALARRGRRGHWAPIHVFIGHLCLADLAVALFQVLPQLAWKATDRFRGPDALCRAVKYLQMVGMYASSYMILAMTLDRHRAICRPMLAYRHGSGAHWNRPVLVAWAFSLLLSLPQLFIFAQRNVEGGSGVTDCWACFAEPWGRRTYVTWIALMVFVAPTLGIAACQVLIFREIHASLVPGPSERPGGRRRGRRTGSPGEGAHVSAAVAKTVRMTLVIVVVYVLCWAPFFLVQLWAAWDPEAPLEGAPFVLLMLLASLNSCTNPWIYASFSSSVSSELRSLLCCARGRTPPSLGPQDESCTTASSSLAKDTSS

Row | SMILES | inhibition at 0.1 µM
1 | COc1ccccc1-c1ccc(C(=O)N2Cc3ccc(C(=O)NCc4ccccn4)n3Cc3ccccc32)cc1C [Example 24, 10-[(2′-Methoxy-2-methyl-[1,1′-biphenyl]-4-yl)carbonyl]-N-(2-pyridinylmethyl)-10,11-dihydro-5H-pyrrolo[2,1-c][1,4]benzodiazepine-3-carboxamide] | 26%
2 | COc1cccc(-c2ccc(C(=O)N3Cc4ccc(C(=O)NCc5ccccn5)n4Cc4ccccc43)cc2C)c1 [Example 25, 10-[(3′-Methoxy-2-methyl-[1,1′-biphenyl]-4-yl)carbonyl]-N-(2-pyridinylmethyl)-10,11-dihydro-5H-pyrrolo[2,1-c][1,4]benzodiazepine-3-carboxamide] | 33%
3 | COc1ccccc1-c1ccc(C(=O)N2Cc3ccc(C(=O)NCc4ccccn4)n3Cc3ccccc32)cc1 [Example 26, 10-[(2′-Methoxy-[1,1′-biphenyl]-4-yl)carbonyl]-N-(2-pyridinylmethyl)-10,11-dihydro-5H-pyrrolo[2,1-c][1,4]benzodiazepine-3-carboxamide] | 23%
4 | COc1cccc(-c2ccc(C(=O)N3Cc4ccc(C(=O)NCc5ccccn5)n4Cc4ccccc43)cc2OC)c1 [Example 33, 10-[(2,3′-Dimethoxy-[1,1′-biphenyl]-4-yl)carbonyl]-N-(2-pyridinylmethyl)-10,11-dihydro-5H-pyrrolo[2,1-c][1,4]benzodiazepine-3-carboxamide] | 21%
5 | O=C(NCc1ccccn1)c1ccc2n1Cc1ccccc1N(C(=O)c1ccc(-c3cccc4ccccc34)cc1Cl)C2 [Example 34, 10-[2-Chloro-4-(naphthalen-1-yl)benzoyl]-N-(2-pyridinylmethyl)-10,11-dihydro-5H-pyrrolo[2,1-c][1,4]benzodiazepine-3-carboxamide] | 5%
6 | Cc1cc(C(=O)N2Cc3ccc(C(=O)NCc4ccccn4)n3Cc3ccccc32)ccc1-c1ccccc1C(F)(F)F [Example 35, 10-{[2-Methyl-2′-trifluoromethyl-[1,1′-biphenyl]-4-yl]carbonyl}-N-(2-pyridinylmethyl)-10,11-dihydro-5H-pyrrolo[2,1-c][1,4]benzodiazepine-3-carboxamide] | 14%
7 | Cc1ccccc1-c1ccc(C(=O)N2Cc3ccc(C(=O)NCc4cccnc4)n3Cc3ccccc32)cc1C [Example 37, 10-[(2,2′-Dimethyl-[1,1′-biphenyl]-4-yl)carbonyl]-N-(3-pyridinylmethyl)-10,11-dihydro-5H-pyrrolo[2,1-c][1,4]benzodiazepine-3-carboxamide] | 7%
8 | COc1cccc(-c2ccc(C(=O)N3Cc4ccc(C(=O)NCc5cccnc5)n4Cc4ccccc43)cc2C)c1 [Example 38, 10-[(3′-Methoxy-2-methyl-[1,1′-biphenyl]-4-yl)carbonyl]-N-(3-pyridinylmethyl)-10,11-dihydro-5H-pyrrolo[2,1-c][1,4]benzodiazepine-3-carboxamide] | 21%
9 | COc1ccccc1-c1ccc(C(=O)N2Cc3ccc(C(=O)NCc4cccnc4)n3Cc3ccccc32)cc1 [Example 39, 10-[(2′-Methoxy-[1,1′-biphenyl]-4-yl)carbonyl]-N-(3-pyridinylmethyl)-10,11-dihydro-5H-pyrrolo[2,1-c][1,4]benzodiazepine-3-carboxamide] | 11%
10 | Cc1ccccc1-c1ccc(C(=O)N2Cc3ccc(C(=O)NCc4cccnc4)n3Cc3ccccc32)cc1 [Example 40, 10-[(2′-Methyl-[1,1′-biphenyl]-4-yl)carbonyl]-N-(3-pyridinylmethyl)-10,11-dihydro-5H-pyrrolo[2,1-c][1,4]benzodiazepine-3-carboxamide] | 11%
11 | COc1cc(C(=O)N2Cc3ccc(C(=O)NCc4cccnc4)n3Cc3ccccc32)ccc1-c1ccccc1C [Example 41, 10-[(2-Methoxy-2′-methyl-[1,1′-biphenyl]-4-yl)carbonyl]-N-(3-pyridinylmethyl)-10,11-dihydro-5H-pyrrolo[2,1-c][1,4]benzodiazepine-3-carboxamide] | 16%

More lines, now with the values ahead:

Row | inhibition at 0.1 µM | SMILES
12 | 16% | Cc1ccccc1-c1ccc(C(=O)N2Cc3ccc(C(=O)NCc4ccccn4)n3Cc3ccccc32)cc1 [Example 27, 10-[(2′-Methyl-[1,1′-biphenyl]-4-yl)carbonyl]-N-(2-pyridinylmethyl)-10,11-dihydro-5H-pyrrolo[2,1-c][1,4]benzodiazepine-3-carboxamide]
13 | 20% | COc1cc(C(=O)N2Cc3ccc(C(=O)NCc4ccccn4)n3Cc3ccccc32)ccc1-c1ccccc1C [Example 28, 10-[(2-Methoxy-2′-methyl-[1,1′-biphenyl]-4-yl)carbonyl]-N-(2-pyridinylmethyl)-10,11-dihydro-5H-pyrrolo[2,1-c][1,4]benzodiazepine-3-carboxamide]
14 | 12% | COc1cc(-c2ccccc2C)c(Cl)cc1C(=O)N1Cc2ccc(C(=O)NCc3ccccn3)n2Cc2ccccc21 [Example 29, 10-[(6-Chloro-3-methoxy-2′-methyl-[1,1′-biphenyl]-4-yl)carbonyl]-N-(2-pyridinylmethyl)-10,11-dihydro-5H-pyrrolo[2,1-c][1,4]benzodiazepine-3-carboxamide]
15 | 14% | COc1cccc(-c2cc(OC)c(C(=O)N3Cc4ccc(C(=O)NCc5ccccn5)n4Cc4ccccc43)cc2Cl)c1 [Example 30, 10-[(6-Chloro-3,3′-dimethoxy-[1,1′-biphenyl]-4-yl)carbonyl]-N-(2-pyridinylmethyl)-10,11-dihydro-5H-pyrrolo[2,1-c][1,4]benzodiazepine-3-carboxamide]
16 | 31% | COc1cc(C(=O)N2Cc3ccc(C(=O)NCc4ccccn4)n3Cc3ccccc32)ccc1-c1cccc2ccccc12 [Example 31, 10-[3-Methoxy-4-(naphthalen-1-yl)benzoyl]-N-(2-pyridinylmethyl)-10,11-dihydro-5H-pyrrolo[2,1-c][1,4]benzodiazepine-3-carboxamide]
17 | 21% | COc1ccccc1-c1ccc(C(=O)N2Cc3ccc(C(=O)NCc4ccccn4)n3Cc3ccccc32)cc1OC [Example 32, 10-[(2,2′-Dimethoxy-[1,1′-biphenyl]-4-yl)carbonyl]-N-(2-pyridinylmethyl)-10,11-dihydro-5H-pyrrolo[2,1-c][1,4]benzodiazepine-3-carboxamide]
18 | 24% | COc1ccccc1-c1ccc(C(=O)N2Cc3ccc(C(=O)NCc4cccnc4)n3Cc3ccccc32)cc1C [Example 36, 10-[(2′-Methoxy-2-methyl-[1,1′-biphenyl]-4-yl)carbonyl]-N-(3-pyridinylmethyl)-10,11-dihydro-5H-pyrrolo[2,1-c][1,4]benzodiazepine-3-carboxamide]
19 | 8% | COc1cc(-c2ccccc2C)c(Cl)cc1C(=O)N1Cc2ccc(C(=O)NCc3cccnc3)n2Cc2ccccc21 [Example 42, 10-[(6-Chloro-3-methoxy-2′-methyl-[1,1′-biphenyl]-4-yl)carbonyl]-N-(3-pyridinylmethyl)-10,11-dihydro-5H-pyrrolo[2,1-c][1,4]benzodiazepine-3-carboxamide]
20 | 7% | COc1cccc(-c2cc(OC)c(C(=O)N3Cc4ccc(C(=O)NCc5cccnc5)n4Cc4ccccc43)cc2Cl)c1 [Example 43, 10-[(6-Chloro-3,3′-dimethoxy-[1,1′-biphenyl]-4-yl)carbonyl]-N-(3-pyridinylmethyl)-10,11-dihydro-5H-pyrrolo[2,1-c][1,4]benzodiazepine-3-carboxamide]
